Experiment [1] can be described thus: THP-1 cell cytotoxicity, dose response, cytotoxicity control for non-replicating M. tuberculosis project (AID 489025). In kind it is functional.
The nature of experiment [2]: Vero E6 cell cytotoxicity, dose response, cytotoxicity control for non-replicating M. tuberculosis project, secondary assay (AID 492998). Type of experiment: functional, VeroE6. To be noted: Vero C1008.
A further experiment can be described thus: cells. Type of experiment: functional.
In the next experiment the test system is CHO. Briefly: cytotoxicity in TLR9-MyD88 CHO cells, dose response, cytotoxicity control for TLR9-MyD88 binding inhibitor project, cell-based, luminescence (AID 588339).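 Note: CHO cells stably coexpressing TLR9 and MyD88 fusions from primary screen; compound exposure lasted 48 hours before viability readout.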 The conditions noted are these: Cricetulus griseus. In kind it is functional, hamster.
For another experiment, the target named is Beta Lactamase (Pseudomonas aeruginosa, UniProt Q932Y6). The experiment can be described thus: beta-lactamase reporter inhibitor potency, dose response, artefact control for TLR9-MyD88 binding inhibitor project, BLA reporter cells, FRET fluorescence (AID 588341).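 Note: cell based assay in CHO-K1 cells stably expressing beta-lactamase.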 Type of experiment: cell-based.
Experiment [3] has as its target Latent membrane protein 1 (Human herpesvirus 4 (strain B95-8), UniProt P03230). Briefly: TES1-eGFP NF-kB reporter inhibition versus Tet-On dsRED, dose response, selectivity assay for LMP1 NF-kB inhibitor project, imaging, HEK293T, dual-color eGFP/dsRED, cherry-picks (AID 588398). In kind it is functional, cell-based.
Experiment [4] concerns the target Disintegrin and metalloproteinase domain-containing protein 17 (Homo sapiens, UniProt P78536). Briefly: exosite inhibitors of ADAM17, dose response, biochemical (AID 743260).
Experiment [5] is described as follows: ADAM10 protease inhibitors, dose response, selectivity assay for ADAM17 exosite inhibitor project, biochemical, FRET peptide substrate, recombinant human ADAM10 (AID 743259).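 Note: ADAM10 enzyme cleaving a FRET peptide substrate.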
The target of experiment [6] is T1, Sentrin-specific protease 8 (Homo sapiens, UniProt Q96LD8).
T1 sequence (Q96LD8 whole entry): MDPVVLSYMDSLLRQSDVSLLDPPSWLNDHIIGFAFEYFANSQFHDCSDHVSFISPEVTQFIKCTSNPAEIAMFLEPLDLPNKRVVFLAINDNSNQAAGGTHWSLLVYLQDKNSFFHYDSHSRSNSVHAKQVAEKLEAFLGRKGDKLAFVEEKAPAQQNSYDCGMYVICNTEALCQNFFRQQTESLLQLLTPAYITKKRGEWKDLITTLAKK
The experiment can be described thus: SENP8 protease inhibitors, SAR follow-up, biochemical, luminescence (AID 504501). In kind it is functional.

Experiment [7] deals with T2, Caspase-3 (Homo sapiens, UniProt P42574).
T2 sequence (P42574 whole entry): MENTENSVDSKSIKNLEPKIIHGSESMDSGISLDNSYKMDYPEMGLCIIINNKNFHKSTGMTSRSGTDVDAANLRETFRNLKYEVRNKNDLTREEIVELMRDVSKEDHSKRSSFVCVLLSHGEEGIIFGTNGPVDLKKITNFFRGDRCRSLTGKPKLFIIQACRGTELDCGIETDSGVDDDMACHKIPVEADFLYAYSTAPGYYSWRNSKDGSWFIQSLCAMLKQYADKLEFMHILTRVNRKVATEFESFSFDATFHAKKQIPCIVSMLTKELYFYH
Briefly: caspase-3 inhibitors as off-family protease, SAR follow-up, selectivity assay for SENP protease inhibitor project, biochemical, luminescence, set 2 (AID 588599). In kind it is functional.

Experiment [8] deals with T1, Sentrin-specific protease 8. The experiment can be described thus: SENP8 protease inhibitors, SAR follow-up, biochemical, luminescence, set 2 (AID 588601). Type of experiment: functional.
Experiment [9] has as its target T2, Caspase-3. The experiment can be described thus: SAR Analysis of small molecule inhibitors of Sentrin-specific proteases (SENPs) using a Caspase-3 Selectivity assay. [Related pubchem assays (depositor defined):AID2540, AID2599, AID434973, AID489001]. Type of experiment: functional.
Experiment [10] concerns the target T3, Sentrin-specific protease 6 (Homo sapiens, UniProt Q9GZR1).
T3 sequence (Q9GZR1 whole entry): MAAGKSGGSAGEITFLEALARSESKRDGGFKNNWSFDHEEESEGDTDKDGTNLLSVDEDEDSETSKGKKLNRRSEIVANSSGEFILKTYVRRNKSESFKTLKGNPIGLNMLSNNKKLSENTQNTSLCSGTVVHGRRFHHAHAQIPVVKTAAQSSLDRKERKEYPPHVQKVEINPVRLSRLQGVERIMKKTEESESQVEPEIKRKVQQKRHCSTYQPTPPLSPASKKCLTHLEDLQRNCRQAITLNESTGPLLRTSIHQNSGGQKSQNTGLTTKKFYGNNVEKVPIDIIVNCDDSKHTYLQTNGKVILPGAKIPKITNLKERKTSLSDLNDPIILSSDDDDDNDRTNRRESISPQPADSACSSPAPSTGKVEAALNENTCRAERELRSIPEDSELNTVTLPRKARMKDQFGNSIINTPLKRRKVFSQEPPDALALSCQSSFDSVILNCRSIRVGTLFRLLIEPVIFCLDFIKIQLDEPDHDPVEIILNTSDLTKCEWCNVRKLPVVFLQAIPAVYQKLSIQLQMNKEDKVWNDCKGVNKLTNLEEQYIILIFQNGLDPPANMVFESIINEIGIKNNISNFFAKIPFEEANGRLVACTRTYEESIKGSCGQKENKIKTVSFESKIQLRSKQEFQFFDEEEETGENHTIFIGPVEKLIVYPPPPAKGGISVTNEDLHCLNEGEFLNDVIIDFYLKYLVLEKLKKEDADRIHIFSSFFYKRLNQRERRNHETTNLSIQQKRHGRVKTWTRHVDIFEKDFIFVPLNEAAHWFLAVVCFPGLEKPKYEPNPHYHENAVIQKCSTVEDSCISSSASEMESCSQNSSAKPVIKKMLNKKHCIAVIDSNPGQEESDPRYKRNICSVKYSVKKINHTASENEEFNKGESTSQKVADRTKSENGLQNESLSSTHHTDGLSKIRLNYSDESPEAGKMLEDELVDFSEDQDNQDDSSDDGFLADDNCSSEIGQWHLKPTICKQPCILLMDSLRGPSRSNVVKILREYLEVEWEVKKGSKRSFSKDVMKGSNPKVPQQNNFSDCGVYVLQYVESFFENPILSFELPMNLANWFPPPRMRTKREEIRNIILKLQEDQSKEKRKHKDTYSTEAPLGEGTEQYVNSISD
Briefly: SAR Analysis of small molecule inhibitors of Sentrin-specific protease 6 (SENP6) using a Luminescent assay. [Related pubchem assays (depositor defined):AID2582, AID2599]. Type of experiment: functional.

Experiment [11] has as its target T3, Sentrin-specific protease 6. The experiment can be described thus: SENP6 protease inhibitors, SAR follow-up, biochemical, luminescence, set 2 (AID 588598). Type of experiment: functional.
Experiment [12] concerns the target T4, Sentrin-specific protease 7 (Homo sapiens, UniProt Q9BQF6).
T4 sequence (Q9BQF6 whole entry): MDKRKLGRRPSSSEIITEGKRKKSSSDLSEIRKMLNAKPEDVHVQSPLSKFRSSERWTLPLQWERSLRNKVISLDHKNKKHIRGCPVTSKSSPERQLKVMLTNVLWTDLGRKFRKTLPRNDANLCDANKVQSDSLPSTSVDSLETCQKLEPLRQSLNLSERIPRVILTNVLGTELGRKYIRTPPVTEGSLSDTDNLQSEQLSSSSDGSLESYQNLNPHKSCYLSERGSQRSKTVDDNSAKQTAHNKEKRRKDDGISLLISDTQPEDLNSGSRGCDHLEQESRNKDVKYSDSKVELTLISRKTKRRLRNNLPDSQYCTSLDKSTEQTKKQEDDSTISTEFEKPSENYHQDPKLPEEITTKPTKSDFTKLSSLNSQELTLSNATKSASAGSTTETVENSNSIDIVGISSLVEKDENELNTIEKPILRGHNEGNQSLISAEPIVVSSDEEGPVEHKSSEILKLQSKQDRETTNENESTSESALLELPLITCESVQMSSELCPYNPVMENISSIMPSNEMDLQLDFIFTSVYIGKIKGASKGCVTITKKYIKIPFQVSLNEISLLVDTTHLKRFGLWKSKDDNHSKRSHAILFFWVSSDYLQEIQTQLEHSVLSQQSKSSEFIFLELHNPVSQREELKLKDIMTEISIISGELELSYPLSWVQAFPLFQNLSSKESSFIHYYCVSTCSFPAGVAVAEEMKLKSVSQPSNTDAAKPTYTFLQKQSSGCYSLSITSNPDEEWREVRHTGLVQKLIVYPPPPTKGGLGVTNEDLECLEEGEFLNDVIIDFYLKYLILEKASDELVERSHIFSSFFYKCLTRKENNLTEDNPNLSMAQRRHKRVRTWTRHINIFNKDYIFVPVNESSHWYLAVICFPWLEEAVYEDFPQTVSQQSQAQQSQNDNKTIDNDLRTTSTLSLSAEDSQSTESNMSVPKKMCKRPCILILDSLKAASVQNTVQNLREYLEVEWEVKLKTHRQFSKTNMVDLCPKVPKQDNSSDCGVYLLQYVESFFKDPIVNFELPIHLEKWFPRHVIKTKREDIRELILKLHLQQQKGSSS
Briefly: SENP7 protease inhibitors, SAR follow-up, biochemical, luminescence (AID 504497). In kind it is functional.

For experiment [13], the target named is DNA dC->dU-editing enzyme APOBEC-3G (Homo sapiens, UniProt Q9HC16). The experiment can be described thus: APOBEC3G deaminase inhibitors, SAR follow-up, biochemical, fluorescence, single-stranded DNA substrate (AID 602136). In kind it is functional. To be noted: read-out: IC50_Mean.
Experiment [14] addresses DNA dC->dU-editing enzyme APOBEC-3A (Homo sapiens, UniProt P31941). The experiment can be described thus: SAR analysis of small molecule inhibitors of APOBEC3A DNA Deaminase via a fluorescence-based single-stranded DNA deaminase assay. Type of experiment: functional. The conditions noted are these: read-out: IC50_Mean.

Calls of active or inactive are those of the source.

Data on 4 compounds can be found in ChEMBL document CHEMBL1201862, “PubChem BioAssay data set” (2004).

Sequence of Disintegrin and metalloproteinase domain-containing protein 17 (P78536 whole entry, the tested form may be a part): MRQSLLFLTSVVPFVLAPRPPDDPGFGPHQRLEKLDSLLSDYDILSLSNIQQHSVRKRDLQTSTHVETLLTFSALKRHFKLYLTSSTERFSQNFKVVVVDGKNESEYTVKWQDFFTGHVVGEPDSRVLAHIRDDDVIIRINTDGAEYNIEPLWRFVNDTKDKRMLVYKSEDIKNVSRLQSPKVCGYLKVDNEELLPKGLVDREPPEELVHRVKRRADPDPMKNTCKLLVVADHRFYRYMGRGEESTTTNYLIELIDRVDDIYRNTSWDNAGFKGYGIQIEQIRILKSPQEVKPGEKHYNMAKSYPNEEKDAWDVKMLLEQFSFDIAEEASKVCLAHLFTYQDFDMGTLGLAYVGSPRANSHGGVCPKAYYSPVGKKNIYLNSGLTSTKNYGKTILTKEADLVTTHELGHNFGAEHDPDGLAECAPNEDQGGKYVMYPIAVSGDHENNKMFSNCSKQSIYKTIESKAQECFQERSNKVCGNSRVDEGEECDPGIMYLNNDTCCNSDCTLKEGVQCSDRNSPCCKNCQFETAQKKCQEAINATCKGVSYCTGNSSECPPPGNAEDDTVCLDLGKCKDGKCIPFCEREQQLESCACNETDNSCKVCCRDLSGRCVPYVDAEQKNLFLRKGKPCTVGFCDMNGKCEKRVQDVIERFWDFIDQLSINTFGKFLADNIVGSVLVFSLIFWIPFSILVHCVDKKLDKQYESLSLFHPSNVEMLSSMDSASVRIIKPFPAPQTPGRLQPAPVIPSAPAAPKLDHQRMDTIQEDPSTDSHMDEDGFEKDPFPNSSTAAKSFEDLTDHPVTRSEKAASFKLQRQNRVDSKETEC
Sequence of Latent membrane protein 1 (P03230 whole entry, the tested form may be a part): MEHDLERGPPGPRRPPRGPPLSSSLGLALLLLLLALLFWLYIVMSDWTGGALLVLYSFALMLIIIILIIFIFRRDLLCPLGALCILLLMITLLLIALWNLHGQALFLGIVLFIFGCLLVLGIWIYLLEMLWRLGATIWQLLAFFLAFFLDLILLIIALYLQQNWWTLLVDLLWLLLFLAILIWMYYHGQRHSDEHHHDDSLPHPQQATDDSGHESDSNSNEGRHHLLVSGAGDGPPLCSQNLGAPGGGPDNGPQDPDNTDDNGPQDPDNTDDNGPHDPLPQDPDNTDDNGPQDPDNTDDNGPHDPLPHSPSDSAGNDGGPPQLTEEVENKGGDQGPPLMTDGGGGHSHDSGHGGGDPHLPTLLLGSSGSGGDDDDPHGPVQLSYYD
Sequence of Beta Lactamase (Q932Y6 whole entry): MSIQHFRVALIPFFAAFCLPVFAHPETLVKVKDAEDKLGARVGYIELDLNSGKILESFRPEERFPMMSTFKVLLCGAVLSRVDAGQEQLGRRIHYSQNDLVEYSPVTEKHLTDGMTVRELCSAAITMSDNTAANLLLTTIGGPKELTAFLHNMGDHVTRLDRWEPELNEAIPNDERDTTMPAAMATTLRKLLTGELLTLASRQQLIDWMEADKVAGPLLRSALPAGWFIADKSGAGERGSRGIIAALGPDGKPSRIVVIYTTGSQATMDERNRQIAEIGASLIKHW
Sequence of DNA dC->dU-editing enzyme APOBEC-3G (Q9HC16 whole entry): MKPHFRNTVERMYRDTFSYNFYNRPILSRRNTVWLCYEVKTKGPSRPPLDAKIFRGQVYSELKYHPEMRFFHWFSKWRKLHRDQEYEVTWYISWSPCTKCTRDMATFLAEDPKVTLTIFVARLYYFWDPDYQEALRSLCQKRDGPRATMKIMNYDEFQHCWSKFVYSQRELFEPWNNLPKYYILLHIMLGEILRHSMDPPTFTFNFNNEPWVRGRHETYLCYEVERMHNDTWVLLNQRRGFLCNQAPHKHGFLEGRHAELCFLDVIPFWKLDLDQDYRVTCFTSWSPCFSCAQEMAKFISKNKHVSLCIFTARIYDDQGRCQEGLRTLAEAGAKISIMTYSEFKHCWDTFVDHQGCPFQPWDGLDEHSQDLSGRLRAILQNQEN
Sequence of DNA dC->dU-editing enzyme APOBEC-3A (P31941 whole entry): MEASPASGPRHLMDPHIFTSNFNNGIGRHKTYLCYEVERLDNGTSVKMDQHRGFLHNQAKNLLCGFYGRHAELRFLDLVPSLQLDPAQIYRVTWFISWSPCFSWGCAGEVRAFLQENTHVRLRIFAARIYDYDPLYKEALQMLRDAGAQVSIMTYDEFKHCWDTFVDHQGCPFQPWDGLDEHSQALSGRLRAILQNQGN

Usually CC50 stands for the concentration that lowers cell viability or growth by half. Take `CC(=O)Oc1ccc(N2C(=O)c3cccc4c([N+](=O)[O-])ccc(c34)C2=O)cc1`: the CC50 in experiment [1] was 6.74 µM (active); in experiment [2], > 20 µM (active). Besides, the results for the IC50 in the experiment “cells”, in the experiment on CHO and at Beta Lactamase were 9.16 µM (active), 6.34 µM (active) and 4.06 µM (active), respectively.

The AC50 is the midpoint of the concentration-response curve, whichever way the signal moves. Turning to `COc1ccc(CN(C(=O)c2nsc(Cl)c2Cl)C(C(=O)NC2CCCC2)c2ccc(C)cc2)cc1` (configuration not stated), the AC50 in [3] was 27.6 µM (active). The IC50 was > 69.5 µM (inactive) in experiment [4] and > 7.72 µM (active) in [5].

With `COc1ccccc1OCc1nc(-c2ccccc2Cl)no1`, the IC50 in experiment [6] is 4.9 µM (active); on Caspase-3 [7], 3.23 µM (active); in experiment [8], 2 µM (active); at Caspase-3 [9], 2.9 µM (active); in experiment [10], 4.7 µM (active); in experiment [11], 2.08 µM (active). In addition, the IC50 in [12] is 2.1 µM (active).

As to `COc1ccc(-c2nnc(SCc3coc(-c4cccs4)n3)[nH]2)cc1`, the IC50 in [13] and in [14] was > 99 µM (inactive) throughout.
